Test results: article PMC8160793, “Potent Antimicrobial and Antibiofilm Activities of Feleucin-K3 Analogs Modified by α-(4-Pentenyl)-Ala against Multidrug-Resistant Bacteria” (Biomolecules, 2021)
≈ marks a conversion by molar mass, not a printed value. Square brackets hold non-standard residues; d marks the D form. Peptide text beside a SMILES is read from it. ξ: configuration not given here. ξαMeGly(pent-4-enyl) = C=CCCCC(C)(N)C(=O)O

Columns and labels:
A. baumannii ATCC 19606 = type: cell-based, Acinetobacter baumannii; conditions: ATCC 19606, 24 h
Experimental: (§1) The antibiofilm activity of the peptides was determined according to the previously described methods. Strains (final concentration of 5 × 10^5 CFU/mL) and peptides (4–128 μg/mL) were incubated for 24 h at 37 °C. Biofilm cells were cleaned with 0.01-M PBS and fixed with methanol. Crystal violet (0.1%, HopeBiol, Qingdao, China) was used to stain the biofilm cells for 10 min. After washing with water, 95% ethanol was finally added, and the optical density at 595 nm was measured with a microplate reader (Flex Station 3; Laguna Hills, CA, USA).

A. baumannii 9828 = type: cell-based, Acinetobacter baumannii; conditions: 9828, 18 h
Procedure, shortened: (§2)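 Broth microdilution MIC: bacteria at 1 × 10^6 CFU/mL were incubated with peptide (8–128 μg/mL) at 37 °C for 18 h, and MIC was taken as the lowest concentration without obvious growth. Salt stability was tested the same way in 450-mM NaCl, repeated until the same value came out three times.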

A. baumannii 9840 = type: cell-based, Acinetobacter baumannii; conditions: 9840, 18 h
Procedure, shortened: as §2

A. baumannii 97830 = type: cell-based, Acinetobacter baumannii; conditions: 97830, 18 h
Procedure, shortened: as §2

A. baumannii 91152 = type: cell-based, Acinetobacter baumannii; conditions: 91152, 18 h
Procedure, shortened: as §2

A. baumannii 91810 = type: cell-based, Acinetobacter baumannii; conditions: 91810, 18 h
Procedure, shortened: as §2

A. baumannii 8309 = type: cell-based, Acinetobacter baumannii; conditions: 8309, 18 h
Procedure, shortened: as §2

A. baumannii 91105 = type: cell-based, Acinetobacter baumannii; conditions: 91105, 18 h
Procedure, shortened: as §2

A. baumannii 98110 = type: cell-based, Acinetobacter baumannii; conditions: 98110, 18 h
Procedure, shortened: as §2

E. coli ATCC 25922 [1] = type: cell-based; conditions: ATCC 25922, 18 h
Experimental: The minimum inhibitory concentration (MIC) of the Feleucin-K3 analogs was tested by the broth microdilution method. Sensitive bacteria and drug-resistant bacteria were diluted to 1 × 10^6 CFU/mL, according to the McFarland standards. Bacterial suspension and peptide solutions (8–128 μg/mL) were incubated at 37 °C for 18 h. The minimum concentration without obvious bacterial growth was the MIC of the peptides. The stability of the analogs in a physiological salt environment was also investigated. In brief, salt powder (450-mM NaCl) was dissolved in deionized water, and the following investigational steps were the same as those described before. The above steps were repeated several times, until the same value was obtained three times.

E. coli ATCC 25922 [2] = type: cell-based; conditions: ATCC 25922, 24 h
Experimental: as §1

For `C=CCCCC(C)(N)C(=O)N[C@@H](CC(C)C)C(=O)N[C@@H](CCCCN)C(=O)N[C@@H](CC(C)C)C(=O)N[C@@H](CC(C)C)C(=O)N[C@@H](CCCCN)C(=O)N[C@@H](CCCCN)C(=O)N[C@@H](CC(C)C)C(=O)N[C@@H](CC(C)C)C(N)=O` (some centres unmarked) [Feleucin-K65] (H-[ξαMeGly(pent-4-enyl)]LKLLKKLL-NH2), the “MBIC50, A. baumannii ATCC 19606” value (A. baumannii ATCC 19606) was 8 µg/mL, the “MBIC90, A. baumannii ATCC 19606” value (A. baumannii ATCC 19606) was 8 µg/mL and the “MIC, A. baumannii 9828” value (A. baumannii 9828) was 4 µg/mL (≈ 3.61 µM). The “MIC, A. baumannii 9840” value (A. baumannii 9840) was 4 µg/mL (≈ 3.61 µM), the “MIC, A. baumannii 97830” value (A. baumannii 97830) was 4 µg/mL (≈ 3.61 µM) and the “MIC, A. baumannii 91152” value (A. baumannii 91152) was 4 µg/mL (≈ 3.61 µM). The “MIC, A. baumannii 91810” value (A. baumannii 91810) was 4 µg/mL (≈ 3.61 µM), the “MIC, A. baumannii 8309” value (A. baumannii 8309) was 4 µg/mL (≈ 3.61 µM) and the “MIC, A. baumannii 91105” value (A. baumannii 91105) was 4 µg/mL (≈ 3.61 µM). For the same compound, the “MIC, A. baumannii 98110” value (A. baumannii 98110) was 4 µg/mL (≈ 3.61 µM), the “MIC, E. coli ATCC 25922” value (E. coli ATCC 25922 [1]) was 8 µg/mL (≈ 7.23 µM) and the “MBIC50, E. coli ATCC 25922” value (E. coli ATCC 25922 [2]) was 16 µg/mL. The “MBIC90, E. coli ATCC 25922” value (E. coli ATCC 25922 [2]) was 32 µg/mL.
With `C=CCCCC(C)(NC(=O)[C@H](CC(C)C)NC(=O)[C@H](CCCCN)NC(=O)[C@H](CCCCN)NC(=O)[C@H](CC(C)C)NC(=O)[C@H](CC(C)C)NC(=O)[C@H](CCCCN)NC(=O)[C@H](CC(C)C)NC(=O)[C@@H](N)Cc1ccccc1)C(N)=O` (some centres unmarked) [Feleucin-K70] (H-FLKLLKKL[ξαMeGly(pent-4-enyl)]-NH2) the “MBIC50, A. baumannii ATCC 19606” value (A. baumannii ATCC 19606) was 8 µg/mL, the “MBIC90, A. baumannii ATCC 19606” value (A. baumannii ATCC 19606) was 16 µg/mL and the “MIC, A. baumannii 9828” value (A. baumannii 9828) was 8 µg/mL (≈ 7.01 µM). For the same compound, the “MIC, A. baumannii 9840” value (A. baumannii 9840) was 8 µg/mL (≈ 7.01 µM), the “MIC, A. baumannii 97830” value (A. baumannii 97830) was 8 µg/mL (≈ 7.01 µM) and the “MIC, A. baumannii 91152” value (A. baumannii 91152) was 8 µg/mL (≈ 7.01 µM). The “MIC, A. baumannii 91810” value (A. baumannii 91810) was 8 µg/mL (≈ 7.01 µM), the “MIC, A. baumannii 8309” value (A. baumannii 8309) was 8 µg/mL (≈ 7.01 µM) and the “MIC, A. baumannii 91105” value (A. baumannii 91105) was 4 µg/mL (≈ 3.51 µM). The “MIC, A. baumannii 98110” value (A. baumannii 98110) was 8 µg/mL (≈ 7.01 µM), the “MIC, E. coli ATCC 25922” value (E. coli ATCC 25922 [1]) was 8 µg/mL (≈ 7.01 µM) and the “MBIC50, E. coli ATCC 25922” value (E. coli ATCC 25922 [2]) was 8 µg/mL. For the same compound, the “MBIC90, E. coli ATCC 25922” value (E. coli ATCC 25922 [2]) was 32 µg/mL.
